Columns and labels:
C9orf72 intron 1 [1] = assay: C9orf72 intron 1 RT-qPCR in iPSC lines from healthy donors; assay type: cell-based, human
Experimental: iPSCs were treated for 4 days in Matrigel (356234, Corning) coated plates with mTeSR™1 feeder-free medium ([…] Technologies; Catalog #85850). Cells were treated in 6-well plates on day 1 and 3 with compounds diluted in 0.1% final DMSO.
(§1) Measuring Levels of C9orf72 and C9orf72 Variants by RT-qPCR. LCLs were seeded in 6-well plate (˜10^6 cells in 2 mL of growth medium) and incubated overnight at 37° C. Cells were then treated with various concentrations of compound for 24 h or with G4C2-ASO and Control-ASO (100 nM), delivered by transfection with Lipofectamine RNAiMax. RNA was extracted as described above and the expression of C9orf72 variants was determined by RT-qPCR. For iPSC and iPSC-derived motor neuron cell line, the cells were seeded into Matrigel-coated 6-well plate to ˜60% confluence before treated with 3 μM C9orf72-ASO or Control-ASO and various concentrations of compound for 1 to 2 weeks. For compound treatment well, medium change was performed with fresh compound every 3-4 days. RNA was extracted as described above and the expression of C9orf72 variants was determined by RT-qPCR.

[2] = biological target: T1, ternary complex r(G4C2)66, RNase L and 7 (Homo sapiens, UniProt Q05823); assay: RNase L RNA immunoprecipitation in HEK293T cells; assay type: cell-based; conditions: 500 nM, compared to vehicle
T1 construct: for degradation by recruiting the endogenous nuclease Rnase L; endogenous in cells; host or cells: HEK293T cells transfected with the (G4C2)66-No ATG-GFP plasmid (RNA only)
Experimental: RNA Immunoprecipitation. HEK293T cells were transfected with (G4C2)66-No ATG-GFP plasmid as described above, split into in 6-well plates, grown to ˜70% confluency, and treated with 500 nM 7 diluted in growth media for 24 h. The cell was washed with 1×PBS, removed from the plate with Accutase (Innovative Cell Technologies, Inc.), and then washed with 1×PBS. Cells were then lysed in 100 μL of M-PER buffer supplemented with 80 U RNaseOUT Recombinant Ribonuclease Inhibitor (Invitrogen) and 1× Protease Inhibitor Cocktail III for Mammalian Cells (Research Products International Corp.) per manufacturer's recommendations. The protein samples were tumbled overnight at 4° C. with Dynabeads Protein A (Life Technologies) that were bound to either β-actin mouse primary antibody (Cell Signaling Technologies; 3700S) or Rnase L mouse primary antibody (Santa Cruz Biotechnology; sc-74405). After antibody incubation, the beads were washed three times with 1×PBS supplemented with 0.02% Tween-20 and total RNA was extracted from beads using a miRNeasy Mini Kit (Qiagen) according to manufacturer's instructions.
Relative RNA expression levels before and after pull-down were determined by the ΔΔCt method and normalized to β-actin as a housekeeping gene.

[3] = tested on: transcriptome of iPSCs derived from healthy donors; assay: RNA-seq in iPSCs from healthy donors; assay type: cell-based, human; conditions: 50 nM
C9orf72 intron 1 [4] = assay: C9orf72 intron 1 RT-qPCR in LCLs from a healthy donor; assay type: cell-based, human
Experimental: as §1, with “For iPSC and iPSC-derived motor neuron cell line, the cells were seeded into Matrigel-coated 6-well plate to ˜60% confluence before treated with 3 μM C9orf72-ASO or Control-ASO and various concentrations of compound for 1 to 2 weeks.” left out

[5] = tested on: transcripts containing short, non-pathogenic r(G4C2) repeats; assay: Off-target RT-qPCR of genes with short r(G4C2) repeats in patient-derived LCL; assay type: cell-based, human; conditions: 500 nM
[6] = tested on: C9orf72 exon 1b transcripts lacking r(G4C2)exp; assay: C9orf72 exon 1b RT-qPCR in patient-derived LCLs; assay type: cell-based, human; conditions: any concentration
Experimental: as §1, with “For iPSC and iPSC-derived motor neuron cell line, the cells were seeded into Matrigel-coated 6-well plate to ˜60% confluence before treated with 3 μM C9orf72-ASO or Control-ASO and various concentrations of compound for 1 to 2 weeks.” left out

[7] = tested on: RAN translation of r(G4C2)66; assay: RAN translation assay in HEK293T cells; assay type: cell-based, human
Experimental: RAN Translation Assay. Inhibition of RAN translation in HEK239T cells was completed as previously described (12). Briefly, HEK293T cells (6×10^6 cells) were seeded in growth medium and incubated at 37° C. overnight. Cells were co-transfected with 2 μg of a plasmid encoding r(G4C2)66-No ATG-NanoLuciferase and 1 μg SV40-Firefly luciferase plasmid with Lipofectamine 3000 (Life Technologies) per the manufacturer's protocols. Following transfection, the cells (˜8000/well) were plated in a clear bottom 384-well plate and incubated at 37° C. for 2 h. Compounds were added in growth medium such that the final concentration of DMSO was less than 1%. The G4C2-LNA and control-LNA (Table 3) were transfected with RNAiMax at a final concentration of 100 nM following transfection with RNAiMax (Life Technologies) per the manufacturer's recommended protocol. RAN and canonical translation was measured following 24 h treatment using a Dual-Luciferase® Reporter Assay System (Promega) following manufacturer's protocol. Experiments were performed as biological triplicates (n=3). Luminescence from Nano-Luciferase activity (RAN translation) was normalized to luminescence from firefly luciferase activity. This ratio for vehicle-treated samples was then set to 1 and the ratios for treated samples normalized accordingly.

c9 patient-derived iPSCs = assay: Cell viability; assay type: cell-based, human; conditions: 1-1000 nM
Experimental: Cell Viability. Lymphoblastoid cells were seeded in 96-well plate (˜10^4 cells/well) overnight and then treated with compounds for 48 h. The cell viability was measured by CellTiter-Fluor™ Cell Viability Assay per the manufacturer's protocol. For iPSCs, cells (diluted 1:4 after harvesting from a 100 mm dish) were seeded in Matrigel-coated 24-well plate. After 24 h, the compounds were added for 48 h and cell viability was measured by AlamarBlue™ Cell Viability Reagent (DAL1025, Thermo Fisher Scientific) per the manufacturer's protocol.

T1 sequence (Q05823 whole entry, one chain of several): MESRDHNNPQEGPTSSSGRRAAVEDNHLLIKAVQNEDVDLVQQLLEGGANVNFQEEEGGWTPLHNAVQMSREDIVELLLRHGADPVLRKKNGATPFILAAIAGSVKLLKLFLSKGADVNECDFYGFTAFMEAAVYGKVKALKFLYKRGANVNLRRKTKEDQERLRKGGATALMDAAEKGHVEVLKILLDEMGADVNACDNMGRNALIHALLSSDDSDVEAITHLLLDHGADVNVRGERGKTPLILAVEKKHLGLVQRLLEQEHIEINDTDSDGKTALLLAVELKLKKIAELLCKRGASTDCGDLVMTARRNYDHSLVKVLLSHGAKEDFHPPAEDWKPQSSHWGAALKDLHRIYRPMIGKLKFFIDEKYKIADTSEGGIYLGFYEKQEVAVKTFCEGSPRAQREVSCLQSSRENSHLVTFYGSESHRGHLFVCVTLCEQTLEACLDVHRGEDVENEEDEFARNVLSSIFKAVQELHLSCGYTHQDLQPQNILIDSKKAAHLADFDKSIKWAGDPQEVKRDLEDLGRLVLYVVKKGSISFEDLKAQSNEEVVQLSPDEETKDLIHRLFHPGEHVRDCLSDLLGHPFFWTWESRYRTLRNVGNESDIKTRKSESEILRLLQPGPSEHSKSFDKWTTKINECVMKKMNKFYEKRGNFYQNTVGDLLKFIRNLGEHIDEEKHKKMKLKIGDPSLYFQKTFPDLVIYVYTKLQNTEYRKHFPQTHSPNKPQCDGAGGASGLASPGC

enrichment of r(G4C2)exp-containing mRNA in anti-Rnase L immunoprecipitated fractions [2] [fold] | Structure (SMILES) | C9orf72 intron 1 levels (C9orf72 intron 1 [1]) | changes in the transcriptome [3] | C9orf72 intron 1 levels (C9orf72 intron 1 [4]) | abundance of eight transcripts with short r(G4C2) repeats [5] | C9orf72 transcripts that lack r(G4C2)exp (exon 1b) [6] | RAN translation of r(G4C2)66 (Nano-luciferase activity) [7] | toxicity (c9 patient-derived iPSCs)
~2 | CCOC(=O)C1=C(Nc2ccccc2)S/C(=C\c2ccc(OCCOCCOCCOCCNC(=O)CCC(=O)N(CCOCCOCCOc3ccc4[nH]c5c(C)c6ccncc6c(C)c5c4c3)CCOCCOCCOc3ccc4[nH]c5c(C)c6ccncc6c(C)c5c4c3)c(O)c2)C1=O [Compound 7] | no effect | no changes | did not affect | No decrease | no decrease | – | –
– | Cc1c2ccncc2c(C)c2c1[nH]c1ccc(OCCOCCOCCNCCOCCOCCOc3ccc4[nH]c5c(C)c6ccncc6c(C)c5c4c3)cc12 [Compound 3] | – | – | – | – | – | inhibited | no toxicity

— patent US20230381170A1, “METHOD FOR TREATING ALS/FTD THROUGH DEGRADATION OF RNA REPEAT EXPANSION” (University of Florida Research Foundation, Incorporated, priority 2020, published 2023)
